Reference: patent US20240400547A1, “2,6-PIPERIDINEDIONE COMPOUND AND APPLICATION THEREOF” (MEDSHINE DISCOVERY INC., priority 2021, published 2024)
Counter-ions that a name gives are not always drawn.

Legend:
[1] = Pharmacokinetic evaluation in beagles; format: in vivo, beagle; details: beagles (fed)
From the text: In this study, male beagles were selected as test animals, and LC/MS/MS method was used to quantify plasma concentrations of the test compound intravenously injected or intragastrically administered to beagles at different time points, so as to evaluate the pharmacokinetic profile of the compounds of the present disclosure in beagles.
Beagle (male, 7 to 10 kg, Beijing Marshall Biotechnology Co., Ltd.).
• A clear solution of the test compound was slowly injected into beagle via the peripheral vein (fed) (vehicle: […]/10% solutol/85% H2O or 5% DMSO/10% solutol/85% H2O), or intragastrically administered to beagles (fed). For intravenous injection, 0.5 mL blood was collected via the saphenous vein puncture at 0.083, 0.25, 0.5, 1, 2, 4, 6, 8, and 24 h after administration, and placed in a EDTA-2K anticoagulant tube. The mixture was centrifuged at 3200 g for 10 minutes at 2 to 8° C., and the supernatant was separated. For oral administration, 0.5 mL blood was collected via the saphenous vein puncture at 0.083, 0.25, 0.5, 1, 2, 4, 6, 8, and 24 h after administration, and placed in a EDTA-2K anticoagulant tube. The mixture was centrifuged at 3200 g for 10 minutes at 2 to 8° C., and the supernatant was separated. Plasma drug concentrations were determined by LC-MS/MS method, and relevant pharmacokinetic parameters were calculated using Phoenix WinNonlin 6.3 pharmacokinetic software with non-compartmental model linear-log trapezoidal method.

IKZF3 = biological target: T1, IKZF3 (Homo sapiens, UniProt Q96SW2+Q9UKT9); assay: In Cell Western of IKZF3 protein expression level in MM.1S cells; format: cell-based; details: IKZF3, MM.1S cells, 24 hours
T1 construct: host or cells: MM.1S cells
T1 sequence (Q9UKT9 whole entry): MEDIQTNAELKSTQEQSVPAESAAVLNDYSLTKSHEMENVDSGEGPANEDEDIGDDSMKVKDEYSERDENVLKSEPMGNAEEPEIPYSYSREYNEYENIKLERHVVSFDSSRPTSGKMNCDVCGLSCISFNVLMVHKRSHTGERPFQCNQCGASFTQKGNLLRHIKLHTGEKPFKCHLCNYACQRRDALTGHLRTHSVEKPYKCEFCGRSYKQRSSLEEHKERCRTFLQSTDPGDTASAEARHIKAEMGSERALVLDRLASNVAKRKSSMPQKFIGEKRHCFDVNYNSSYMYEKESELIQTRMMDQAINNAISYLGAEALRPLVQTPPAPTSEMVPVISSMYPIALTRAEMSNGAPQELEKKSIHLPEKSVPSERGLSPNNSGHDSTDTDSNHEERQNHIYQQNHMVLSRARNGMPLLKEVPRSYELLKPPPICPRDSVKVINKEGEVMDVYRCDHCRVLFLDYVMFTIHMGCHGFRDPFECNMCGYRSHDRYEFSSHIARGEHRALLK
T1 sequence (Q96SW2 whole entry): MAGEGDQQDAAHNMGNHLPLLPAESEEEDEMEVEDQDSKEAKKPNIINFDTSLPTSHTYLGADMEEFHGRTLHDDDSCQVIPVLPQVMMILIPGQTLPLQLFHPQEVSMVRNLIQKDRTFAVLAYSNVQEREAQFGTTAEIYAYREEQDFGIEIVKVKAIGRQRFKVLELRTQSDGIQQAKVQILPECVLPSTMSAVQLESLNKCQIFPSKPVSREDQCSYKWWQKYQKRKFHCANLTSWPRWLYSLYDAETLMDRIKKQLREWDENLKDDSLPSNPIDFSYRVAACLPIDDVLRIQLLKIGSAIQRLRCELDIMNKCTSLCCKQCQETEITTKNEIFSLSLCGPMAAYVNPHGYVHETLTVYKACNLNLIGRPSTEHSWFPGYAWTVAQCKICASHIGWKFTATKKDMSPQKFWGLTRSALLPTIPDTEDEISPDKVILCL
T1 sequence (Q16531 whole entry partner): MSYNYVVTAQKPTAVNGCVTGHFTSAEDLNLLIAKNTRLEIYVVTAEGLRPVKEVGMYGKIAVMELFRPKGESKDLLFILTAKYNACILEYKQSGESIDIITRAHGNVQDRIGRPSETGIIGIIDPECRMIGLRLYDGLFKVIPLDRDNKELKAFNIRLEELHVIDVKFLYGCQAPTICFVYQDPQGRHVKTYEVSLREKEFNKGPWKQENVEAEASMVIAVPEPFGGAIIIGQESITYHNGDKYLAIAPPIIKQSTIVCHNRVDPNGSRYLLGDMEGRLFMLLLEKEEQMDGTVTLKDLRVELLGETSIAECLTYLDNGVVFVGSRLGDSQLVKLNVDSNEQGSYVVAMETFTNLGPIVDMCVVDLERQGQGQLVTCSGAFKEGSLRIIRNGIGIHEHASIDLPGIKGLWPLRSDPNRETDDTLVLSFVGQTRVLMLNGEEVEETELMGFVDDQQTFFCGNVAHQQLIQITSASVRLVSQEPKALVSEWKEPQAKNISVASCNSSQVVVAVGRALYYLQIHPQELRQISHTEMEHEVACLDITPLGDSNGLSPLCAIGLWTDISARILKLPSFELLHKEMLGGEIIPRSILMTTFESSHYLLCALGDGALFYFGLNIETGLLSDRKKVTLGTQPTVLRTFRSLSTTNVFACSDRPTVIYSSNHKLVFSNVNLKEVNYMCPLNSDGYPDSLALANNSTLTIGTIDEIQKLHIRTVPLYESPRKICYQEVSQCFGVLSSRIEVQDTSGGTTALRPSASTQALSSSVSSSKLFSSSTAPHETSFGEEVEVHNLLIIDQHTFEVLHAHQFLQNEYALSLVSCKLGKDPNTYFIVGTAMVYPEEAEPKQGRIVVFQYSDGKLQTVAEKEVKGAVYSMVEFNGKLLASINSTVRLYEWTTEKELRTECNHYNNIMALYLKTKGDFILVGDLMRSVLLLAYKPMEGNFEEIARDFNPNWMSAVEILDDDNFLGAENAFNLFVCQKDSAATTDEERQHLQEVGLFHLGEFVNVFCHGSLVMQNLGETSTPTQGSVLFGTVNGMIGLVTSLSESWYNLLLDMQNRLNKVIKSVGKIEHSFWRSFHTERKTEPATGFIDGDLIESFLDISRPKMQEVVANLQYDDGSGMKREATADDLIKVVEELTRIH
Method: Experimental objective: The experiment aims to assess the degradation effect of the test compounds on IKZF1 and 1KZF3 proteins in MM.1S cells by evaluating the impact of the test compounds on the expression levels of IKZF1 and IZKZF3 proteins in MM.1S cells.
• Cell lines: MMN.1 S cell (sourced from ATCC; Cat. No CRL-2974) • Negative control: 0.100 DMSO.
• 1) Log phase MM.1 S cells were plated in a 96-well plate at 1.2×10^5 cells per well and cultured overnight; • 2) The next day, compounds were added with a starting concentration of 300 nM, diluted threefold across three replicate wells for 10 concentration gradients (including DMSO), and the cells were incubated for 24 hours in an incubator; • 3) The cells were centrifuged, and the supernatant was carefully removed. 150 μL of 4% paraformaldehyde fixative was added along the wall of the wells, avoiding contact with the bottom cells, and the cells were incubated at room temperature for 20 minutes; • 4) Lysis buffer was prepared by mixing 0.5 mL of 10% Triton X-100 with 49.5 mL of PBS until homogenous; • 5) 200 μL of lysis buffer was added along the well walls, again avoiding the bottom cells, and incubated on a shaker at room temperature for 5 minutes; • 6) The wells were washed four times; • 7) 150 μL of Licor […] […]

[2] = intragastric administration 5 mg/kg

| Structure (SMILES) | Area under drug-time curve (0-inf) [1, 2] [nM·h] | Peak concentration [1, 2] [µM] | Time to peak concentration [1, 2] [h] | Area under drug-time curve (0-inf) ([1]; intravenous injection 0.5 mg/kg) [nM·h] | Vd ([1]; male, beagle, dog, plasma, intravenous injection 0.5 mg/kg, read-out: Apparent volume of distribution) [L/kg] | DC50 (IKZF3) [nM] | Dmax (IKZF3; MM1.S, read-out: Maximum degradation rate Dmax) [%] |
| --- | --- | --- | --- | --- | --- | --- | --- |
| O=C1CCC(c2noc3ccc4c(NC(=O)CN5CCN(C[C@H]6CC[C@H](n7cc(NC(=O)c8coc(-c9ccnc(NCC%10CC%10)c9)n8)c(C(F)F)n7)CC6)CC5)cccc4c23)C(=O)N1 (stereo partly shown) [Hydrochloride of WX014] | 3200 | 0.41 | 4.00 | 440 | 5.83 | – | – |
| O=C1CCC(c2noc3ccc4c(NC(=O)C(F)(F)C5CCN(CC6CCC(n7cc(NC(=O)c8coc(-c9ccnc(NCC%10CC%10)c9)n8)c(C(F)F)n7)CC6)CC5)cccc4c23)C(=O)N1 (stereo not shown) [Hydrochloride of WX018] | – | – | – | – | – | 8.34 | 96.5 |
